The results in this text go back to paper PMC7814854 (Biochemistry, 2019).

For this assay, the target named is CMP-sialic acid synthetase (NmCSS) (Neisseria meningitidis, UniProt P0A0Z8). Kind of assay: X-ray crystal structure. The class given is biochemical.
CMP-sialic acid synthetase (NmCSS), sequence (P0A0Z8 whole entry): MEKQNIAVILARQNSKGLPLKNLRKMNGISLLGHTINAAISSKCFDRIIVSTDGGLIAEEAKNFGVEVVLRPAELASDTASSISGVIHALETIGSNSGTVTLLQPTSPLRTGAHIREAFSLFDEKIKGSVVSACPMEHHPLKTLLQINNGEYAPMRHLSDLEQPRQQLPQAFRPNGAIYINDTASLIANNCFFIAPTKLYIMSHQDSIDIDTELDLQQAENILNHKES

For orientation: IC50 means the concentration at which inhibition is half-maximal. Turning to `CC(=O)N[C@H]1[C@H]([C@H](O)[C@H](O)CO)OC(C(=O)O)=C[C@@H]1O` [Neu5Ac2en, 2-deoxy-2,3-dehydro-N-acetylneuraminic acid], the IC50 was determined as 130 ± 10 µM.
